Test results taken from PMC9316855 (Molecules, 2022).

Key:
[1] = in vitro; conditions: rat, serum, pH 7.4
[2] = 48 h
[3] = 24 h

Compound | remaining at 24 h [1] | remaining at 48 h [1] | peptide remaining intact in rat serum [2] | peptide remaining intact in human plasma [3]
CC(C)C[C@H](NC(=O)[C@H](CC(=O)O)NC(=O)CNC(=O)[C@H](CCCNC(=N)N)NC(=O)[C@H](CC(C)C)NC(=O)[C@H](CC(N)=O)NC(=O)[C@@H]1CCCN1C(=O)[C@@H](NC(=O)[C@H](C)NC(=O)[C@H](CC(N)=O)NC(=O)COCCOCCOCCOCCOCCN)C(C)C)C(=O)N[C@@H](CCC(N)=O)C(=O)N[C@H](C(=O)N[C@@H](CC(C)C)C(=O)N[C@@H](C)C(=O)N[C@@H](CCC(N)=O)C(=O)N[C@@H](CCCCN)C(=O)N[C@H](C(=O)N[C@@H](C)C(=O)N[C@@H](CCCNC(=N)N)C(=O)N[C@H](C(=O)O)[C@@H](C)O)C(C)C)C(C)C [Compound 18] | ~60% | ~40% | – | –
CC(C)C[C@H](NC(=O)[C@H](CC(=O)O)NC(=O)CNC(=O)[C@H](CCCNC(=N)N)NC(=O)[C@H](CC(C)C)NC(=O)[C@H](CC(N)=O)NC(=O)[C@@H]1CCCN1C(=O)[C@@H](NC(=O)[C@H](C)NC(=O)[C@H](CC(N)=O)NC(=O)COCCOCCOCCOCCOCCOCCOCCOCCN)C(C)C)C(=O)N[C@@H](CCC(N)=O)C(=O)N[C@H](C(=O)N[C@@H](CC(C)C)C(=O)N[C@@H](C)C(=O)N[C@@H](CCC(N)=O)C(=O)N[C@@H](CCCCN)C(=O)N[C@H](C(=O)N[C@@H](C)C(=O)N[C@@H](CCCNC(=N)N)C(=O)N[C@H](C(=O)O)[C@@H](C)O)C(C)C)C(C)C [Compound 19] | > 70% | – | > 58% | –
CC(C)C[C@H](NC(=O)[C@H](CC(=O)O)NC(=O)CNC(=O)[C@H](CCCNC(=N)N)NC(=O)[C@H](CC(C)C)NC(=O)[C@H](CC(N)=O)NC(=O)[C@@H]1CCCN1C(=O)[C@@H](NC(=O)[C@H](C)NC(=O)[C@H](CC(N)=O)NC(=O)CCOCCOCCOCCOCCOCCN)C(C)C)C(=O)N[C@@H](CCC(N)=O)C(=O)N[C@H](C(=O)N[C@@H](CC(C)C)C(=O)N[C@@H](C)C(=O)N[C@@H](CCC(N)=O)C(=O)N[C@@H](CCCCN)C(=O)N[C@H](C(=O)N[C@@H](C)C(=O)N[C@@H](CCCNC(=N)N)C(=O)N[C@H](C(=O)O)[C@@H](C)O)C(C)C)C(C)C [Compound 20] | ~60% | ~40% | – | –
CC(C)C[C@H](NC(=O)[C@H](CC(=O)O)NC(=O)CNC(=O)[C@H](CCCNC(=N)N)NC(=O)[C@H](CC(C)C)NC(=O)[C@H](CC(N)=O)NC(=O)[C@@H]1CCCN1C(=O)[C@@H](NC(=O)[C@H](C)NC(=O)[C@H](CC(N)=O)NC(=O)CCOCCOCCOCCOCCOCCOCCOCCOCCOCCOCCOCCOCCOCCOCCOCCOCCOCCOCCOCCOCCN)C(C)C)C(=O)N[C@@H](CCC(N)=O)C(=O)N[C@H](C(=O)N[C@@H](CC(C)C)C(=O)N[C@@H](C)C(=O)N[C@@H](CCC(N)=O)C(=O)N[C@@H](CCCCN)C(=O)N[C@H](C(=O)N[C@@H](C)C(=O)N[C@@H](CCCNC(=N)N)C(=O)N[C@H](C(=O)O)[C@@H](C)O)C(C)C)C(C)C [Compound 23] | ~90% | > 70% | – | –
CC(C)C[C@H](NC(=O)[C@H](CC(=O)O)NC(=O)CNC(=O)[C@H](CCCNC(=N)N)NC(=O)[C@H](CC(C)C)NC(=O)[C@H](CC(N)=O)NC(=O)[C@@H]1CCCN1C(=O)[C@@H](NC(=O)[C@H](CCCCNC(=O)CCCC[C@@H]1SC[C@@H]2NC(=O)N[C@@H]21)NC(=O)[C@H](CC(N)=O)NC(=O)COCCOCCNC(=O)CN(CCN(CCN(CC(=O)O)CC(=O)O)CC(=O)O)CC(=O)O)C(C)C)C(=O)N[C@@H](CCC(N)=O)C(=O)N[C@H](C(=O)N[C@@H](CC(C)C)C(=O)N[C@@H](C)C(=O)N[C@@H](CCC(N)=O)C(=O)N[C@@H](CCCCN)C(=O)N[C@H](C(=O)N[C@@H](C)C(=O)N[C@@H](CCCNC(=N)N)C(=O)N[C@H](C(=O)O)[C@@H](C)O)C(C)C)C(C)C [Compound 25] | – | – | – | around 80%
CC(C)C[C@H](NC(=O)[C@H](CC(=O)O)NC(=O)CNC(=O)[C@H](CCCNC(=N)N)NC(=O)[C@H](CC(C)C)NC(=O)[C@H](CC(N)=O)NC(=O)[C@@H]1CCCN1C(=O)[C@@H](NC(=O)[C@H](CCCCNC(=O)CCCC[C@@H]1SC[C@@H]2NC(=O)N[C@@H]21)NC(=O)[C@H](CC(N)=O)NC(=O)CCOCCOCCOCCOCCOCCOCCOCCOCCOCCOCCOCCOCCOCCOCCOCCOCCOCCOCCOCCOCCNC(=O)CN(CCN(CCN(CC(=O)O)CC(=O)O)CC(=O)O)CC(=O)O)C(C)C)C(=O)N[C@@H](CCC(N)=O)C(=O)N[C@H](C(=O)N[C@@H](CC(C)C)C(=O)N[C@@H](C)C(=O)N[C@@H](CCC(N)=O)C(=O)N[C@@H](CCCCN)C(=O)N[C@H](C(=O)N[C@@H](C)C(=O)N[C@@H](CCCNC(=N)N)C(=O)N[C@H](C(=O)O)[C@@H](C)O)C(C)C)C(C)C [Compound 30] | – | – | – | around 80%
